The values that follow come from patent publication US9073880B2, “2-(2-phenylethenyl) 1,3-benzodiazepine derivatives useful for the treatment of cancer” (Yissum Research Development Company of the Hebrew …, priority 2010, dated 2015).

Structures are written as SMILES.

For orientation: IC50 means the concentration at which inhibition is half-maximal.

In experiment [1] the test system is human myeloma U266 cells. Put plainly: Cell proliferation, U266 (Example 2). The format is cell-based. Conditions: U-266, U266, multiple myeloma, 72 hours, 0.1% DMSO, WST-1. As for the experimental part:
(§1) Human ovary cancer A2780 cells lines were seeded at a density of 5000 cells/well, human melanoma A375 cells were plated at a density of 2,500 cells/well, human colon carcinoma HCT15 cells were plated at a density of 3,000 cells/well, human prostate carcinoma PC3 cells were plated at a density of 1,500 cells/well, human breast carcinoma MCF7 cells were plated at a density of 5,000 cells/well, human breast carcinoma MDA MB 468 cells were plated at a density of 6,000 cells/well, human myeloma U266, RPMI8226 and CAG cells were plated at a density of 10,000 cells/well. All cells were plated in 96-well plates in 90 μl growth medium containing 10% FCS, 100 units/ml penicillin and 100 μg/ml streptomycin. Compound 3 was added a day later in […] of 1% DMSO in DDW to obtain final concentrations of 0, 0.1, 0.3, 1, 3, and 10 μM. The final concentration of DMSO (0.1% DMSO) was kept constant in all samples. […] The optical density values were read at 630 nm in ELISA plate reader. Non-adhered cells were exposed to WST-1 reagent for 5 hours following 72 hours treatment with the inhibitors, and optical density values were read at 630 nm in ELISA plate reader. The data was analyzed in Microsoft Excel, using the vehicle control as 100% proliferation. […]

The subject of experiment [2] is human myeloma RPMI8226 cells. Put plainly: Cell proliferation, RPMI8226 (Example 2). The class given is cell-based. Conditions: RPMI-8226, RPMI8226, multiple myeloma, 72 hours, 0.1% DMSO, WST-1. The protocol:
as §1
For orientation: Tetrazolium dyes change colour on reduction, which living cells bring about.

Experiment [3] has as its system human prostate carcinoma PC3 cells. Put plainly: Cell proliferation, PC3 (Example 4). The class given is cell-based. As to conditions: PC-3, PC3, prostate cancer, compound in 2-hydroxypropyl-β-cyclodextrin. The protocol:
as §1

The subject of experiment [4] is human prostate carcinoma PC3MM2 cells. Description: Cell proliferation, PC3MM2 (Example 4). The class given is cell-based. Conditions: PC3MM2, prostate cancer, compound in 2-hydroxypropyl-β-cyclodextrin. As for the experimental part: (§2) Human ovary cancer A2780 cells lines were seeded at a density of 5000 cells/well, human melanoma A375 cells were plated at a density of 2,500 cells/well, human colon carcinoma HCT15 cells were plated at a density of 3,000 cells/well, human prostate carcinoma PC3 cells were plated at a density of 1,500 cells/well, human breast carcinoma MCF7 cells were plated at a density of 5,000 cells/well, human breast carcinoma MDA MB 468 cells were plated at a density of 6,000 cells/well, human myeloma U266, RPMI8226 and CAG cells were plated at a density of 10,000 cells/well. All cells were plated in 96-well plates in 90 μl growth medium containing 10% FCS, 100 units/ml penicillin and 100 μg/ml streptomycin. Compound 3 was added a day later in […] of 1% DMSO in DDW to obtain final concentrations of 0, 0.1, 0.3, 1, 3, and 10 μM. The final concentration of DMSO (0.1% DMSO) was kept constant in all samples. Following exposure of the cells to compound 3 for 72 hours at 37° C., adhered cells were fixed in 0.5% gluteraldehyde in medium for 10 min, washed three times with DDW, once with 0.1M sodium borate buffer pH 8.5 and stained with 1% methylene blue dissolved in 0.1M borate buffer solution for 60 min. Excess dye was washed out and cell-bound dye was eluted with 200 μl/well of 0.1M HCl. The optical density values were read at 630 nm in ELISA plate reader. Non-adhered cells were exposed to WST-1 reagent for 5 hours following 72 hours treatment with the inhibitors, and optical density values were read at 630 nm in ELISA plate reader. The data was analyzed in Microsoft Excel, using the vehicle control as 100% proliferation. The assays were performed in triplicates. The values of IC50 were derived from the dose-dependent growth curves obtained.
(§3) Cell proliferation assay was performed as described in Example 2. […]

Experiment [5] deals with human breast cancer MDA-MB-468 cells. Description: Cell proliferation, MDA-MB-468 (Example 4). The class given is cell-based. Conditions: MDA-MB-468, breast cancer, compound in 2-hydroxypropyl-β-cyclodextrin. As for the experimental part: as §2, §3
In experiment [6] the test system is human osteosarcoma Saos-2 cells. Description: Cell proliferation, Saos-2 (Example 4). The class given is cell-based. Conditions: Saos-2, osteosarcoma, compound in 2-hydroxypropyl-β-cyclodextrin. The protocol:
as §2, §3

The subject of experiment [7] is IRS1 and IRS2. Description: IRS1 and IRS2 serine phosphorylation in A375 cells (western blot). The format is cell-based, human. As to conditions: melanoma A375 cells treated 4 hr, 1 and 3 μM; FIG. 4. The protocol: (§4) Tyrosine autophosphorylation of the β-subunit of IGF-1R as well as downstream signaling induced by IGF-1R were assayed in human breast cancer MCF7 cells and in melanoma A375 cells. Cells were seeded in 6-well plates (250,000 A375 cells/well and 300,000 MCF7 cells/well) and 24 hours later medium was replaced by serum-free medium (RPMI supplemented with 100 units/ml penicillin and 100 μg/ml streptomycin). MCF7 cells were exposed for 48 hr to compound 3 at 10 μM concentration, and then stimulated for 5 minutes with 50 ng/ml IGF-1, washed twice with PBS and lysed by boiling sample buffer (10% glycerol, 50 mM Tris-HCl, pH 6.8, 3% SDS, and 5% (3-mercaptoethanol). Equal amounts of protein per lane were separated by 8% SDS-PAGE and transferred to a nitrocellulose membrane (Sartorius AG). Phosphorylated proteins were immunoblotted with anti-phosphoIGF-1R (pIGF-1R), anti-phosphotyrosine-IRS1 (pY-IRS I) and anti-phospho(T308)Akt (pPKB) antibodies. Detection was performed with horseradish peroxidase-conjugated secondary antibody using the ECL system. […]
(§5) In addition, lysates of human melanoma A375 cells were prepared from cells exposed to compound 3 at 1 and 3 μM concentrations in serum-free medium. […] In this experiment the phosphorylated form of IRS1 on Serine-636/639 and the levels of IRS2 were detected as well.
Background: A western blot detects proteins with antibodies after separation by electrophoresis.

For experiment [8], the system named is PKB/Akt. Put plainly: IGF1-induced PKB/Akt activation in A375 cells (Example 3). The format is cell-based, human. Conditions: melanoma A375 cells treated 4 hr, 1 and 3 μM; FIG. 4. The protocol: as §4, §5

On to `O=c1c(O)cc2cnc(/C=C/c3cc(O)c(O)c(Br)c3)sc-2c1O` [Compound 3], for which the half-maximal inhibitory concentration (IC50) in experiment [1] was 700 nM; in experiment [2] it was 2000 nM; in experiment [3] it was 700 nM; in experiment [4], 2300 nM; in experiment [5], 4.7 µM; in experiment [6] it was 3100 nM. Moreover, the “IRS1 and IRS2 serine phosphorylation” value in experiment [7] is “induction of IRS1 and IRS2 serine phosphorylation”. In addition, the “IGF1-induced PKB/Akt activation” value in experiment [8] is given as “inhibition of IGF1-induced PKB/Akt activation”.
As to `O=c1c(O)cc2cnc(/C=C/c3ccc(O)c(O)c3Br)sc-2c1O` [Compound 5], the IC50 in experiment [4] worked out at 1800 nM; in experiment [5], 2.9 µM; in experiment [6] it was 2800 nM.
